Laboratory results from US11413292B2, “Tricyclic heterocycle compounds useful as HIV integrase inhibitors” (Merck Sharp & Dohme Corp., priority 2018, dated 2022).
Where two headings read alike, the source gives them in different places.

Test system: HIV-1 (H9/IIIB strain) virus
Assay: microbe, parasite or virus in culture
Type: cell-based
Conditions: MT4-GFP cells infected with HIV-1 H9/IIIB, inhibition of reproductive ratio
[1] = 0% NHS condition (RPMI 1640), read-out: Viking, IC50 (0% NHS)
[2] = 100% normal human serum (NHS) condition, read-out: Viking, IC50 (100% NHS)

Row | SMILES | IC50 [1] | IC50 [2] | IC50 (0% NHS condition (RPMI 1640), 2,2,2-trifluoroacetate, read-out: Viking, IC50 (0% NHS)) | IC50 (100% normal human serum (NHS) condition, 2,2,2-trifluoroacetate, read-out: Viking, IC50 (100% NHS)) | IC50 (Human immunodeficiency virus 1, IIIB, 0% NHS condition (RPMI 1640), read-out: Viking, IC50 (0% NHS))
1 | O=C(NCc1c(F)cc(F)cc1F)c1cn2c(c(O)c1=O)C(=O)N1CCC(O)CCN2C1 (single isomer, unassigned) [Example 17A] | 66.1 nM | 1270 nM | – | – | –
2 | O=C(NCc1c(F)cc(F)cc1F)c1cn2c(c(O)c1=O)C(=O)N1CCOCCN2C1 [Example 14A] | 5.4 nM | 4210 nM | – | – | –
3 | COC1CCN2CN(CC1)n1cc(C(=O)NCc3ccc(F)cc3F)c(=O)c(O)c1C2=O (single isomer, unassigned) [Example 20C] | 7.5 nM | 606 nM | – | – | –
4 | CN1CCN2CN(CC1)n1cc(C(=O)NCc3cccc(Cl)c3F)c(=O)c(O)c1C2=O [Example 24A] | 5.1 nM | 665 nM | – | – | –
5 | COC1CCN2CN(CC1)n1cc(C(=O)NCc3c(F)cccc3F)c(=O)c(O)c1C2=O (single isomer, unassigned) [Example 22C] | 2 nM | 88 nM | – | – | –
6 | O=C(NCc1ccc(F)cc1F)c1cn2c(c(O)c1=O)C(=O)N1CCCCCN2C1 [Example 8B] | 0.86 nM | 122 nM | – | – | –
7 | COC1CCN2CN(CC1)n1cc(C(=O)NCc3cccc(F)c3F)c(=O)c(O)c1C2=O (single isomer, unassigned) [Example 23B] | 2.1 nM | 314 nM | – | – | –
8 | COC1CCN2CN(CC1)n1cc(C(=O)NCc3c(F)ccc(Cl)c3F)c(=O)c(O)c1C2=O (single isomer, unassigned) [Example 19A] | 1.8 nM | 116 nM | – | – | –
9 | O=C(NCc1ccc(F)cc1F)c1cn2c(c(O)c1=O)C(=O)N1CCCCCCN2C1 (single isomer, unassigned) [Example 3B, N-(2,4-difluorobenzyl)-10-hydroxy-9,11-dioxo-2,3,4,5,6,7,9,11-octahydro-1,8-methanopyrido[1,2-b][1,2,5]triazacycloundecine-12-carboxamide] | 5.23 nM | 1880 nM | – | – | –
10 | COC1CCN2CN(CC1)n1cc(C(=O)NCc3c(F)cccc3F)c(=O)c(O)c1C2=O (single isomer, unassigned) [Example 22A] | 8.2 nM | 333 nM | – | – | –
11 | O=C(NCc1ccc(F)cc1F)c1cn2c(c(O)c1=O)C(=O)N1CCCCCN2C1 [Example 8A] | 1.03 nM | 1570 nM | – | – | –
12 | COC1CCN2CN(CC1)n1cc(C(=O)NCc3ccc(F)c(Cl)c3F)c(=O)c(O)c1C2=O (single isomer, unassigned) [Example 21D] | 2 nM | 472 nM | – | – | –
13 | COC1CCN2CN(CC1)n1cc(C(=O)NCc3c(F)cc(F)cc3F)c(=O)c(O)c1C2=O (single isomer, unassigned) [Example 5B, 9-hydroxy-4-methoxy-8,10-dioxo-N-(2,4,6-trifluorobenzyl)-3,4,5,6,8,10-hexahydro-2H-1,7-methanopyrido[1,2-b][1,2,5]triazecine-11-carboxamide] | 1.93 nM | 124 nM | – | – | –
14 | O=C(NCc1c(F)cc(F)cc1F)c1cn2c(c(O)c1=O)C(=O)N1CCC(F)(F)CCN2C1 (single isomer, unassigned) [Example 7A, 4,4-difluoro-9-hydroxy-8,10-dioxo-N-(2,4,6-trifluorobenzyl)-3,4,5,6,8,10-hexahydro-2H-1,7-methanopyrido[1,2-b][1,2,5]triazecine-11-carboxamide] | 6.1 nM | 4460 nM | – | – | –
15 | O=C(NCc1ccc(F)c(Cl)c1F)c1cn2c(c(O)c1=O)C(=O)N1CCCCCN2C1 [Example 10B] | 1.65 nM | 225 nM | – | – | –
16 | O=C(NCc1ccc(F)cc1F)c1cn2c(c(O)c1=O)C(=O)N1CCC(F)(F)CCN2C1 [Example 26A] | 6.6 nM | 869 nM | – | – | –
17 | CN1CCN2CN(CC1)n1cc(C(=O)NCc3c(F)cc(F)cc3F)c(=O)c(O)c1C2=O (single isomer, unassigned) [Example 6B, 9-hydroxy-4-methyl-8,10-dioxo-N-(2,4,6-trifluorobenzyl)-3,4,5,6,8,10-hexahydro-2H-1,7-methanopyrido[1,2-b][1,2,5,8]tetrazecine-11-carboxamide 2,2,2-trifluoroacetate] | – | – | 2.4 nM | 80.2 nM | –
18 | O=C(NCc1c(F)cc(F)cc1F)c1cn2c(c(O)c1=O)C(=O)N1CCC(O)CCN2C1 (single isomer, unassigned) [Example 17C] | 184 nM | 5920 nM | – | – | –
19 | COC1CCN2CN(CC1)n1cc(C(=O)NCc3ccc(F)cc3F)c(=O)c(O)c1C2=O (single isomer, unassigned) [Example 20D] | 2.1 nM | 212 nM | – | – | –
20 | O=C(NCc1c(F)ccc(Cl)c1F)c1cn2c(c(O)c1=O)C(=O)N1CCOCCN2C1 [Example 16B] | 1.2 nM | 247 nM | – | – | –
21 | COC1CCN2CN(CC1)n1cc(C(=O)NCc3cccc(Cl)c3F)c(=O)c(O)c1C2=O (single isomer, unassigned) [Example 18B] | 2.5 nM | 435 nM | – | – | –

Row | SMILES | IC50 [1] | IC50 [2] | IC50 (0% NHS condition (RPMI 1640), 2,2,2-trifluoroacetate, read-out: Viking, IC50 (0% NHS)) | IC50 (100% normal human serum (NHS) condition, 2,2,2-trifluoroacetate, read-out: Viking, IC50 (100% NHS)) | IC50 (Human immunodeficiency virus 1, IIIB, 0% NHS condition (RPMI 1640), read-out: Viking, IC50 (0% NHS))
22 | O=C(NCc1ccc(F)cc1F)c1cn2c(c(O)c1=O)C(=O)N1CCOCCN2C1 (single isomer, unassigned) [Example 4A, N-(2,4-difluorobenzyl)-9-hydroxy-8,10-dioxo-2,3,5,6,8,10-hexahydro-1,7-methanopyrido[1,2-e][1,4,5,8]oxatriazecine-11-carboxamide] | 3.45 nM | 9520 nM | – | – | –
23 | O=C(NCc1ccc(F)cc1F)c1cn2c(c(O)c1=O)C(=O)N1CCCCN2C1 [Example 2A] | 4.04 nM | 4160 nM | – | – | –
24 | O=C(NCc1c(F)cc(F)cc1F)c1cn2c(c(O)c1=O)C(=O)N1CCC(F)(F)CCN2C1 (single isomer, unassigned) [Example 7B, 4,4-difluoro-9-hydroxy-8,10-dioxo-N-(2,4,6-trifluorobenzyl)-3,4,5,6,8,10-hexahydro-2H-1,7-methanopyrido[1,2-b][1,2,5]triazecine-11-carboxamide] | 2.16 nM | 73.9 nM | – | – | –
25 | COC1CCN2CN(CC1)n1cc(C(=O)NCc3c(F)cc(F)cc3F)c(=O)c(O)c1C2=O (single isomer, unassigned) [Example 5A, 9-hydroxy-4-methoxy-8,10-dioxo-N-(2,4,6-trifluorobenzyl)-3,4,5,6,8,10-hexahydro-2H-1,7-methanopyrido[1,2-b][1,2,5]triazecine-11-carboxamide] | 3.2 nM | 67.2 nM | – | – | –
26 | COC1CCN2CN(CC1)n1cc(C(=O)NCc3ccc(F)cc3F)c(=O)c(O)c1C2=O (single isomer, unassigned) [Example 20B] | 2.8 nM | 371 nM | – | – | –
27 | COC1CCN2CN(CC1)n1cc(C(=O)NCc3c(F)cccc3F)c(=O)c(O)c1C2=O (single isomer, unassigned) [Example 22D] | 1.4 nM | 311 nM | – | – | –
28 | CN1CCN2CN(CC1)n1cc(C(=O)NCc3c(F)ccc(Cl)c3F)c(=O)c(O)c1C2=O [Example 25B] | 2.1 nM | 139 nM | – | – | –
29 | O=C(NCc1c(F)cc(F)cc1F)c1cn2c(c(O)c1=O)C(=O)N1CCOCCN2C1 [Example 14B] | 1.66 nM | 157 nM | – | – | –
30 | O=C(NCc1cccc(Cl)c1F)c1cn2c(c(O)c1=O)C(=O)N1CCCCCN2C1 [Example 9B] | 1.15 nM | 196 nM | – | – | –
31 | O=C(NCc1ccc(F)c(Cl)c1F)c1cn2c(c(O)c1=O)C(=O)N1CCCCCN2C1 [Example 10A] | 1.89 nM | 8580 nM | – | – | –
32 | COC1CCN2CN(CC1)n1cc(C(=O)NCc3cccc(Cl)c3F)c(=O)c(O)c1C2=O (single isomer, unassigned) [Example 18D] | 1.5 nM | 230 nM | – | – | –
33 | COC1CCN2CN(CC1)n1cc(C(=O)NCc3c(F)cc(F)cc3F)c(=O)c(O)c1C2=O (single isomer, unassigned) [Example 5C, 9-hydroxy-4-methoxy-8,10-dioxo-N-(2,4,6-trifluorobenzyl)-3,4,5,6,8,10-hexahydro-2H-1,7-methanopyrido[1,2-b][1,2,5]triazecine-11-carboxamide] | 1.68 nM | 62.8 nM | – | – | –
34 | O=C(NCc1c(F)ccc(Cl)c1F)c1cn2c(c(O)c1=O)C(=O)N1CCCCCCN2C1 [Example 12A] | 14.3 nM | 10700 nM | – | – | –
35 | O=C(NCc1c(F)ccc(Cl)c1F)c1cn2c(c(O)c1=O)C(=O)N1CCOCCN2C1 [Example 16A] | 2.7 nM | 12300 nM | – | – | –
36 | O=C(NCc1cccc(Cl)c1F)c1cn2c(c(O)c1=O)C(=O)N1CCOCCN2C1 [Example 13A] | 2.74 nM | 3360 nM | – | – | –
37 | O=C(NCc1ccc(F)c(Cl)c1F)c1cn2c(c(O)c1=O)C(=O)N1CCOCCN2C1 [Example 15B] | 1.61 nM | 224 nM | – | – | –
38 | COC1CCN2CN(CC1)n1cc(C(=O)NCc3cccc(F)c3F)c(=O)c(O)c1C2=O (single isomer, unassigned) [Example 23C] | 4.3 nM | 83 nM | – | – | –
39 | O=C(NCc1ccc(F)cc1F)c1cn2c(c(O)c1=O)C(=O)N1CCOCCN2C1 (single isomer, unassigned) [Example 4B, N-(2,4-difluorobenzyl)-9-hydroxy-8,10-dioxo-2,3,5,6,8,10-hexahydro-1,7-methanopyrido[1,2-e][1,4,5,8]oxatriazecine-11-carboxamide] | – | 197 nM | – | – | 1.78 nM
40 | COC1CCN2CN(CC1)n1cc(C(=O)NCc3c(F)ccc(Cl)c3F)c(=O)c(O)c1C2=O (single isomer, unassigned) [Example 19B] | 5.3 nM | 1880 nM | – | – | –
41 | O=C(NCc1c(F)ccc(Cl)c1F)c1cn2c(c(O)c1=O)C(=O)N1CCCCCCN2C1 [Example 12B] | 3.21 nM | 428 nM | – | – | –
42 | COC1CCN2CN(CC1)n1cc(C(=O)NCc3cccc(F)c3F)c(=O)c(O)c1C2=O (single isomer, unassigned) [Example 23A] | 5.8 nM | 728 nM | – | – | –
